Results: US20240109930A1, “TRIAZOLYL-METHYL SUBSTITUTED ALPHA-D-GALACTOPYRANOSIDE DERIVATIVES” (Idorsia Pharmaceuticals Ltd, priority 2021, published 2024)

Assays:
[1] = molecular target: human Gal-3 (hGal-3) (Homo sapiens (Human), UniProt P17931); experiment: Competitive binding assay: biotinylated hGal-3 binding to microplate-adsorbed asialofetuin (ASF); settings: IC50 values from several measurements given as geomean
Procedure, shortened: (§1)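 Biotinylated hGal-3 or hGal-1 (preferably cysteine-free Cys→Ser mutant), 300–1000 ng/mL, competes with compound for ASF-coated wells for 3 h at 4 °C. Bound lectin detected with streptavidin-peroxidase (80 ng/mL, 1 h, 4 °C) and ABTS by absorbance; IC50 reported as geomean of several runs.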

[2] = molecular target: human Gal-1 (hGal-1) (Homo sapiens, UniProt P09382, C131S/C17S/C43S/C61S/C89S); experiment: Competitive binding assay: biotinylated hGal-1 binding to microplate-adsorbed asialofetuin (ASF); settings: IC50 values from several measurements given as geomean
Procedure, shortened: as §1

human Gal-3 (hGal-3), sequence (P17931 whole entry): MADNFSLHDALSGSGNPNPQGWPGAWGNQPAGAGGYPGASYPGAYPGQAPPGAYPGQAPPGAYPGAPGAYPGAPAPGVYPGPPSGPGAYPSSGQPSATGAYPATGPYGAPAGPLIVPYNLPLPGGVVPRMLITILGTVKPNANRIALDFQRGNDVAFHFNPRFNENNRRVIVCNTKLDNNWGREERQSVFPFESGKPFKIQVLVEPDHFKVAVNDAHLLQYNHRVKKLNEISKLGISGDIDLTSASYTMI

SMILES	IC50 [1] [µM]	IC50 [2] [µM]
CO[C@@H]1[C@@H](n2cc(-c3ccc(Cl)c(F)c3F)nn2)[C@@H](O)[C@@H](CO)O[C@@H]1Cc1cn(C23CC(C(F)(F)F)(C2)C3)nn1 [Ex 2.1.24.]	0.08	6.7
CO[C@@H]1[C@@H](n2cc(-c3ccc(Cl)c(F)c3F)nn2)[C@@H](O)[C@@H](CO)O[C@@H]1Cc1cn(C(C)(C)C(F)F)nn1 [Ex 2.1.28.]	0.04	0.78
CO[C@@H]1[C@@H](n2cc(-c3ccc(Cl)c(F)c3F)nn2)[C@@H](O)[C@@H](CO)O[C@@H]1Cc1cn(C23CC(OC)(C2)C3)nn1 [Ex 2.1.29.]	0.06	2.1
CO[C@@H]1[C@@H](n2cc(-c3ccc(Cl)c(F)c3F)nn2)[C@@H](O)[C@@H](CO)O[C@@H]1Cc1cn(C23COC(C2)C3)nn1 [Ex 2.1.44.]	0.03	2.1
CO[C@@H]1[C@@H](n2cc(-c3ccc(Cl)c(F)c3F)nn2)[C@@H](O)[C@@H](CO)O[C@@H]1Cc1cn(C(C)(C)CF)nn1 [Ex 2.1.45.]	0.04	1.49
CO[C@@H]1[C@@H](n2cc(-c3ccc(Cl)c(F)c3F)nn2)[C@@H](O)[C@@H](CO)O[C@@H]1Cc1cn([C@]2(C)C[C@H](F)C2)nn1 [Ex 2.1.47.B]	0.03	1.2
CCC(C)(C)n1cc(C[C@H]2O[C@H](CO)[C@H](O)[C@H](n3cc(-c4ccc(Cl)c(F)c4F)nn3)[C@H]2OC)nn1 [Ex 2.1.49., (2R,3R,4S,5R,6R)-4-(4-(4-Chloro-2,3-difluorophenyl)-1H-1,2,3-triazol-1-yl)-2-(hydroxymethyl)-5-methoxy-6-((1-(tert-pentyl)-1H-1,2,3-triazol-4-yl)methyl)tetrahydro-2H-pyran-3-ol]	0.03	1.33
CCC(C)(CC)n1cc(C[C@H]2O[C@H](CO)[C@H](O)[C@H](n3cc(-c4ccc(Cl)c(F)c4F)nn3)[C@H]2OC)nn1 [Ex 2.1.50.]	0.07	1.6
CO[C@@H]1[C@@H](n2cc(-c3ccc(Cl)c(F)c3F)nn2)[C@@H](O)[C@@H](CO)O[C@@H]1Cc1cn(C2(CF)COC2)nn1 [Ex 2.1.52., (2R,3R,4S,5R,6R)-4-(4-(4-chloro-2,3-difluorophenyl)-1H-1,2,3-triazol-1-yl)-6-((1-(3-(fluoromethyl)oxetan-3-yl)-1H-1,2,3-triazol-4-yl)methyl)-2-(hydroxymethyl)-5-methoxytetrahydro-2H-pyran-3-ol [1-(1,2,3-tri-deoxy-2-methoxy-3-[4-(4-chloro-2,3-difluorophenyl)-1H-1,2,3-triazol-1-yl]-α-D-galacto-pyranose)-1-(1-(3-fluoromethyl-3-oxetanyl)-1H-triazol-4-yl)-methane]]	0.02	0.65
CO[C@@H]1[C@@H](n2cc(-c3ccc(Cl)c(F)c3F)nn2)[C@@H](O)[C@@H](CO)O[C@@H]1Cc1cn(C2(C(F)F)COC2)nn1 [Ex 2.1.53., (2R,3R,4S,5R,6R)-4-(4-(4-chloro-2,3-difluorophenyl)-1H-1,2,3-triazol-1-yl)-6-((1-(3-(difluoromethyl)oxetan-3-yl)-1H-1,2,3-triazol-4-yl)methyl)-2-(hydroxymethyl)-5-methoxytetrahydro-2H-pyran-3-ol [1-(1,2,3-tri-deoxy-2-methoxy-3-[4-(4-chloro-2,3-difluorophenyl)-1H-1,2,3-triazol-1-yl]-α-D-galacto-pyranose)-1-(1-(3-difluoromethyl-3-oxetanyl)-1H-triazol-4-yl)-methane]]	0.02	0.42
CO[C@@H]1[C@@H](n2cc(-c3ccc(Cl)c(F)c3F)nn2)[C@@H](O)[C@@H](CO)O[C@@H]1Cc1cn(C2(C(F)(F)F)CCC2)nn1 [Ex 2.1.55.]	0.02	0.62
CO[C@@H]1[C@@H](n2cc(-c3ccc(Cl)c(F)c3F)nn2)[C@@H](O)[C@@H](CO)O[C@@H]1Cc1cn(C(C)(C)C(F)(F)F)nn1 [Ex 2.1.56.]	0.05	0.82
CO[C@@H]1[C@@H](n2cc(-c3ccc(Cl)c(F)c3F)nn2)[C@@H](O)[C@@H](CO)O[C@@H]1Cc1cn(C2(C(F)(F)F)COC2)nn1 [Ex 2.1.58., (2R,3R,4S,5R,6R)-4-(4-(4-chloro-2,3-difluorophenyl)-1H-1,2,3-triazol-1-yl)-2-(hydroxymethyl)-5-methoxy-6-((1-(3-(trifluoromethyl)oxetan-3-yl)-1H-1,2,3-triazol-4-yl)methyl)tetrahydro-2H-pyran-3-ol [1-(1,2,3-tri-deoxy-2-methoxy-3-[4-(4-chloro-2,3-difluorophenyl)-1H-1,2,3-triazol-1-yl]-α-D-galacto-pyranose)-1-(1-(3-trifluoromethyl-3-oxetanyl)-1H-triazol-4-yl)-methane]]	0.02	0.47
CO[C@@H]1[C@@H](n2cc(-c3ccc(Cl)c(F)c3F)nn2)[C@@H](O)[C@@H](CO)O[C@@H]1Cc1cn(C23COC(C)(C2)C3)nn1 [Ex 2.1.59., (2R,3R,4S,5R,6R)-4-(4-(4-chloro-2,3-difluorophenyl)-1H-1,2,3-triazol-1-yl)-2-(hydroxymethyl)-5-methoxy-6-((1-(1-methyl-2-oxabicyclo[2.1.1]hexan-4-yl)-1H-1,2,3-triazol-4-yl)methyl)tetrahydro-2H-pyran-3-ol]	0.05	2.37

More lines, in order of falling IC50 [1], values ahead:

IC50 [1] [µM]	IC50 [2] [µM]	SMILES
0.5	28.1	CO[C@@H]1[C@@H](n2cc(-c3ccc(Cl)c(F)c3F)nn2)[C@@H](O)[C@@H](CO)O[C@@H]1Cc1cn(C2CC(C(F)(F)F)(C(F)(F)F)C2)nn1 [Ex 2.1.57.]
0.13	9.17	CO[C@@H]1[C@@H](n2cc(-c3ccc(Cl)c(F)c3F)nn2)[C@@H](O)[C@@H](CO)O[C@@H]1Cc1cn(C2CC(C(F)(F)F)C2)nn1 (stereo partly shown) [Ex 2.1.41.]
0.1	7.86	CO[C@@H]1[C@@H](n2cc(-c3ccc(Cl)c(F)c3F)nn2)[C@@H](O)[C@@H](CO)O[C@@H]1Cc1cn(C2CC3(CC3)C2)nn1 [Ex 2.1.26.]
0.06	2.06	CO[C@@H]1[C@@H](n2cc(-c3ccc(Cl)c(F)c3F)nn2)[C@@H](O)[C@@H](CO)O[C@@H]1Cc1cn(C2[C@H]3CCC[C@@H]23)nn1 (stereo partly shown) [Ex 2.1.20.]
0.05	0.9	COCC1(n2cc(C[C@H]3O[C@H](CO)[C@H](O)[C@H](n4cc(-c5ccc(Cl)c(F)c5F)nn4)[C@H]3OC)nn2)COC1 [Ex 2.1.21.]
0.05	0.68	CO[C@@H]1[C@@H](n2cc(-c3ccc(Cl)c(F)c3F)nn2)[C@@H](O)[C@@H](CO)O[C@@H]1Cc1cn(C2(CCO)COC2)nn1 [Ex 2.1.22.]
0.05	1.96	CO[C@@H]1[C@@H](n2cc(-c3ccc(Cl)c(F)c3F)nn2)[C@@H](O)[C@@H](CO)O[C@@H]1Cc1cn(C23CC(F)(C2)C3)nn1 [Ex 2.1.25.]
0.05	1.63	CO[C@@H]1[C@@H](n2cc(-c3ccc(Cl)c(F)c3F)nn2)[C@@H](O)[C@@H](CO)O[C@@H]1Cc1cn(C2(CF)CCC2)nn1 [Ex 2.1.40.]
0.04	1.83	CO[C@@H]1[C@@H](n2cc(-c3ccc(Cl)c(F)c3F)nn2)[C@@H](O)[C@@H](CO)O[C@@H]1Cc1cn(C2(C)CCOC2)nn1 (stereo partly shown) [Ex 2.1.42.]
0.04	1.03	CO[C@@H]1[C@@H](n2cc(-c3ccc(Cl)c(F)c3F)nn2)[C@@H](O)[C@@H](CO)O[C@@H]1Cc1cn(C2(C(F)(F)F)CCCC2)nn1 [Ex 2.1.67.]
0.04	0.47	CO[C@@H]1[C@@H](n2cc(-c3ccc(Cl)c(F)c3F)nn2)[C@@H](O)[C@@H](CO)O[C@@H]1Cc1cn([C@@]2(C(F)(F)F)C[C@H]3C[C@H]3C2)nn1 [Ex 2.1.69.]
0.03	0.7	CO[C@@H]1[C@@H](n2cc(-c3ccc(Cl)c(F)c3F)nn2)[C@@H](O)[C@@H](CO)O[C@@H]1Cc1cn([C@]2(C)C[C@@H](O)C2)nn1 [Ex 2.1.27.]
0.03	1.07	CO[C@@H]1[C@@H](n2cc(-c3ccc(Cl)c(F)c3F)nn2)[C@@H](O)[C@@H](CO)O[C@@H]1Cc1cn(C2(CF)CC2)nn1 [Ex 2.1.46.]
0.03	0.7	CO[C@@H]1[C@@H](n2cc(-c3ccc(Cl)c(F)c3F)nn2)[C@@H](O)[C@@H](CO)O[C@@H]1Cc1cn(C2(C(F)(F)F)CC2)nn1 [Ex 2.1.54., (2R,3R,4S,5R,6R)-4-(4-(4-Chloro-2,3-difluorophenyl)-1H-1,2,3-triazol-1-yl)-2-(hydroxymethyl)-5-methoxy-6-((1-(1-(trifluoromethyl)cyclopropyl)-1H-1,2,3-triazol-4-yl)methyl)tetrahydro-2H-pyran-3-ol]
0.03	1.2	CO[C@@H]1[C@@H](n2cc(-c3ccc(Cl)c(F)c3F)nn2)[C@@H](O)[C@@H](CO)O[C@@H]1Cc1cn(C23CCOC(C)(C2)C3)nn1 [Ex 2.1.62., (2R,3R,4S,5R,6R)-4-(4-(4-chloro-2,3-difluorophenyl)-1H-1,2,3-triazol-1-yl)-2-(hydroxymethyl)-5-methoxy-6-((1-(1-methyl-2-oxabicyclo[3.1.1]heptan-5-yl)-1H-1,2,3-triazol-4-yl)methyl)tetrahydro-2H-pyran-3-ol]
0.02	1.09	CO[C@@H]1[C@@H](n2cc(-c3ccc(Cl)c(F)c3F)nn2)[C@@H](O)[C@@H](CO)O[C@@H]1Cc1cn(C2(C)CC2)nn1 [Ex 2.1.23.]
0.02	0.61	CO[C@@H]1[C@@H](n2cc(-c3ccc(Cl)c(F)c3F)nn2)[C@@H](O)[C@@H](CO)O[C@@H]1Cc1cn(C2(C(F)F)CCC2)nn1 [Ex 2.1.43.]
0.02	0.83	CO[C@@H]1[C@@H](n2cc(-c3ccc(Cl)c(F)c3F)nn2)[C@@H](O)[C@@H](CO)O[C@@H]1Cc1cn(C2(C(F)F)CC2)nn1 [Ex 2.1.51., (2R,3R,4S,5R,6R)-4-(4-(4-chloro-2,3-difluorophenyl)-1H-1,2,3-triazol-1-yl)-6-((1-(1-(difluoromethyl)cyclopropyl)-1H-1,2,3-triazol-4-yl)methyl)-2-(hydroxymethyl)-5-methoxytetrahydro-2H-pyran-3-ol]
